Measurements published in article PMC10730845, “Endoxifen downregulates AKT phosphorylation through protein kinase C beta 1 inhibition in ERα+ breast cancer” (NPJ Breast Cancer, 2023).

Target: PKCβ1 (Homo sapiens, UniProt P05771)
Assay: Surface plasmon resonance (SPR) binding to immobilized PKCβ1
Conditions: 100–8000 nM ENDX; no saturation, accurate KD could not be established
Procedure: Binding assays were performed at 25 °C on a Biacore T200 biosensor (GE healthcare). Purified PKCβ1 protein were immobilized on a CM5 S sensor chip using amino coupling and immobilization buffer (10 mM HEPES, 150 mM NaCl, pH 7.4, P20 0.01% (w/w)) and acetate pH 5.0 at a flow rate of 10 µL/min and reaching 10,000-12,000 resonance units (RUs). ENDX at concentrations ranging from 0–8000 nM in phosphate buffer (Gibco) with 2% DMSO (v/v) and 0.01% (w/w) P20 were run over the chips at a flow rate of 50 µl/min for 30 s. Binding kinetics were derived from sensograms using Biacore BIA evaluation software (GE). Sensograms were subtracted for background contributions, and affinity constants were derived using a steady-state affinity fitting of a 1:1 interaction model.

Chain of PKCβ1 (P05771 whole entry): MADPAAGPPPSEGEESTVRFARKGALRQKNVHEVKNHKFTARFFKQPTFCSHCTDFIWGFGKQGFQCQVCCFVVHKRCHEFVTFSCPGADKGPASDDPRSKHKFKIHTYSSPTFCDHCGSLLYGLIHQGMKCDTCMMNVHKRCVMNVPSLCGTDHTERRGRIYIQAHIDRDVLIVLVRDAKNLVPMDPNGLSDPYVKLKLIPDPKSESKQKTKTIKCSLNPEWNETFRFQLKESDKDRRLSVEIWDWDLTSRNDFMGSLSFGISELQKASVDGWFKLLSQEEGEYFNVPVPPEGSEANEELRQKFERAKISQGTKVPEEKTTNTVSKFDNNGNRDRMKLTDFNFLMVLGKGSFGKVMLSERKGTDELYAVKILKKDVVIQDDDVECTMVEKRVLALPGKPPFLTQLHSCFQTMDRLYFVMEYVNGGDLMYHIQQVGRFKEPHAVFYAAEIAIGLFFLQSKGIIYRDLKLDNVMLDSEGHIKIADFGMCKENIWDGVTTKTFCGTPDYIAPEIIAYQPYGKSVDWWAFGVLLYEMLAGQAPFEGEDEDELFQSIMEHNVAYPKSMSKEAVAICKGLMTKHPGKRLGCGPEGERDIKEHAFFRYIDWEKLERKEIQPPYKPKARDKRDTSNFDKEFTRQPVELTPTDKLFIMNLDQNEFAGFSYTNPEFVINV

CC/C(=C(\c1ccc(O)cc1)c1ccc(OCCNC)cc1)c1ccccc1 [ENDX, Z-endoxifen]
Binding to PKCβ1 by SPR: binds PKCβ1
